We go through one compound from publication PMC10081574, “Evaluation of Antiviral Activity of Gemcitabine Derivatives against Influenza Virus and Severe Acute Respiratory Syndrome Coronavirus 2” (ACS Infectious Diseases, 2023).

What is called EC50 is the concentration that produces a half-maximal response. Broadly, the viability is a per cent measure of how many cells are alive, often set against a control. By CC50 is commonly meant the concentration at which the toxic effect on the cells reaches its halfway point. Lower therefore signals harm at low concentration.

Structures are written as SMILES. Entries after “also recorded” stand apart in the source; their conditions may differ. Like-named read-outs stand apart in the source and are kept apart here.

The test system of data set [1] is Caco-2 human colorectal adenocarcinoma cells. Set-up: method as in PMID 35310327. The conditions noted are these: 0.1 μM to 1 mM, 3 day incubation; cited from earlier work.
The conditions of data set [2]: clinical study; cited from earlier work.
Data set [3] has as its system A/Hong Kong/8/68 (H3N2). In words: microbe, parasite or virus in culture. The conditions noted are these: Influenza A virus, H3N2, MDCK, 72 h.
The subject of data set [4] is influenza A and B viruses. The experiment in a line: CPE reduction antiviral assay, values summarised over influenza strains PR8, HK and Lee. Format: cell-based, influenza virus.
In data set [5] the test system is A/Hong Kong/8/68 (H3N2). The conditions noted are these: ratio of CC50 to EC50.
In the next data set the test system is B/Lee/40. The experiment in a line: CPE reduction antiviral assay in Lee-infected MDCK cells (MTT). In kind it is cell-based, influenza B virus. The conditions noted are these: MDCK, viability of infected cells to 50%.
Data set [6] has as its system A/Puerto Rico/8/34 (H1N1). In words: microbe, parasite or virus in culture. The conditions noted are these: Influenza A virus, 72 h.
Data set [7] in a line: Cytotoxicity to mock-infected MDCK cells (MTT). The conditions noted are these: dog, mock-infected MDCK cells.
Another data set relates to MDCK cells. In words: Cytotoxicity to mock-infected MDCK cells (MTT). The conditions noted are these: for CC10: mock-infected MDCK cells, day 3, MTT, concentration inhibiting cell viability by 10%.

With `Nc1ccn([C@@H]2O[C@H](CO)[C@@H](O)C2(F)F)c(=O)n1` [Gemcitabine, 2′,2′-difluoro-2′-deoxycytidine], the “suppression of Caco-2 cancer cell proliferation” value in data set [1] is reported as 40–50%. Also, in data set [2], the “toxicity after oral administration” value is recorded as “liver necrosis-mediated lethal hepatotoxicity”. Besides, the half-maximal effective concentration (EC50) with A/Hong Kong/8/68 (H3N2) [3] (read-out: EC50 HK) is 300 nM; in [4] (Influenza A virus, span over PR8, HK and Lee, MDCK, read-out: EC50 against influenza viruses), 300 to 700 nM; in the data set on B/Lee/40 (Influenza B virus, 72 h, read-out: EC50 Lee, MDCK, MOI 0.001, day 3), 700 nM; in the data set with B/Lee/40 (MOI 0.001, day 3, read-out: EC50 Lee), 400 nM; in data set [6] (H1N1 / PR8, MDCK, read-out: EC50 PR8) it was 600 nM. Further, the viability at 10 µM in the data set with A/Hong Kong/8/68 (H3N2) [3] (read-out: viability of HK-infected cells in library screening) is above 50%; in [6] (H1N1|PR8, MDCK, read-out: viability of PR8-infected cells in library screening) it was above 50%. For the same compound, the “recovery of viability of virus-infected cells with 90% cutoff” value in [4] (MDCK, day 3) was “failed to reach cell viability above 90%; also recorded: failed to recover over 90% cell viability”. Further, the “SI50 against influenza viruses” value in [4] (over PR8, HK and Lee, CC50/EC50) was “above 464.8”. The “SI50 HK” value in the data set with A/Hong Kong/8/68 (H3N2) [5] was above 883.5. The CC50 at 3 days in [7] is above 300000 nM. The “cytotoxicity at a higher concentration” value in the data set with MDCK cells (100 μM, MDCK, data not shown) is given as “severe cytotoxicity”. In the data set on MDCK cells (incubation of MDCK cells), the “concentrations at which MDCK cell viability gradually decreased” value is recorded as “above 3.3 μM”. Further, the CC10 turned out to be 5000 ± 300 nM with MDCK cells and 5000 nM in the data set with MDCK cells (listed as gemcitabine).
